The target in the experiment is T1, mouse GAC (E. coli-expressed mouse ortholog of human GAC) (Mus musculus, UniProt D3Z7P3).
T1 construct: A plasmid encoding mouse GAC (residues 128-603) was cloned into the pET28a vector; His (N, cleaved yes); made in house; host or cells: E. coli (pET28a)
T1 sequence (D3Z7P3 128-603 isoform D3Z7P3-2): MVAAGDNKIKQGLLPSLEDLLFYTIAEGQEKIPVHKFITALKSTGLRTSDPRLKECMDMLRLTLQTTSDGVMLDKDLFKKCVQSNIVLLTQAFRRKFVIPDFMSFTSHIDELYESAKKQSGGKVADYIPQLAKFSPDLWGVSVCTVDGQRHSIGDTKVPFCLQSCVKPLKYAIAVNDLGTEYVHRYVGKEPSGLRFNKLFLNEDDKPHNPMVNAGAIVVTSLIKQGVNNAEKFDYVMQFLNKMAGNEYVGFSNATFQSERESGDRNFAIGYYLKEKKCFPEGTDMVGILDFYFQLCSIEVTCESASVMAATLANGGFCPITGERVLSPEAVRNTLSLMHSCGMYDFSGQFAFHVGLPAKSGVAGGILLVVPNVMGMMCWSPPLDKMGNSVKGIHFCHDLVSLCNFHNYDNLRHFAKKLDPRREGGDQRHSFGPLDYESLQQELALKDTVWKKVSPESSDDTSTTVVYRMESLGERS
Put plainly: Recombinant glutaminase activity assay. Type of experiment: biochemical. The protocol:
100%=620 moles of glutamine hydrolyzed per minute per mole of enzyme. Data represent the average of 3 experiments (±s.d.). […] Following precipitation of the beads and re-suspension, the samples were analyzed by Western blotting with anti-V5 antibody. […] Data represent the average of 3 experiments (±s.d.). […] Data represent the average of 3 experiments (±s.d.). […] Data represent the average of 3 experiments (±s.d.). FIG. 3E NIH 3T3 cells transiently expressing Dbl were assayed for focus formation in the presence of 10 μM 968 alone or together with 7 mM dimethyl α-ketoglutarate. […] 100%=680 nM glutamine hydrolyzed per minute per 10^5 cells. Data are the average of 3 experiments (±s.d.). […] 100%=750 nM glutamine hydrolyzed per minute per 10^5 cells. Data represent the average of 3 experiments (±s.d.).
The activity of the E. coli-expressed recombinant mouse ortholog of human GAC were assayed in the presence of 0 ([…]), 10 (∇) or 20 (▪) μM 968 and inorganic phosphate in the form of dipotassium hydrogen phosphate. […] The data are plotted as GA activity as function of varying concentrations of glutamine or inorganic phosphate. The data are the average of 3 experiments and are plotted as mean±SEM.
Glutaminase activity assays were performed on recombinant enzyme as previously described (Kenny et al., “Bacterial Expression, Purification and Characterization of Rat Kidney-Type Mitochondrial Glutaminase,” Protein Expr. Purif. 31:140-148 (2003), which is hereby incorporated by reference in its entirety). A plasmid encoding mouse GAC (residues 128-603) was cloned into the pET28a vector and the protein was expressed with an N-terminal histidine (His)-tag. The tag was cleaved using thrombin and the protein was further purified by anion-exchange and gel-filtration chromatography. […] The reaction mixture was incubated at room temperature for 45 minutes and the absorbance at 340 nm was recorded for each sample against a water blank. The absorbance of the sample with just the cocktail mixture was subtracted from each reading to calculate the activity of the enzyme.

The structures appear in SMILES notation.

As for `CN(C)c1ccc(C2Nc3ccc4ccccc4c3C3=C2C(=O)CC(C)(C)C3)cc1Br` (centres unmarked) [Compound 968, 5-[3-bromo-4-(dimethylamino)phenyl]-2,2-dimethyl-2,3,5,6-tetrahydrobenzo[a]], the “inhibition of enzymatic activity of purified mouse GAC” value is recorded as “inhibits the enzymatic activity”. Moreover, the mode of inhibition result (0, 10 or 20 μM, glutamine or inorganic phosphate varied) is listed as “neither competitive versus substrate (glutamine) nor inorganic phosphate”.

The values are drawn from patent US20130252983A1, “ACTIVATING PHOSPHORYLATION SITE ON GLUTAMINASE C” (CORNELL UNIVERSITY, priority 2010, published 2013).
